{"source": "patent US10179134B2", "about": "“Polymeric nanoparticles in a thermosensitive gel for coital-independent vaginal prophylaxis of HIV” (Creighton University, priority 2012, dated 2019)", "origin": "cited, not measured here", "tested_on": "HeLa cells", "data": [{"smiles": "O=C1Nc2ccc(Cl)cc2[C@@](C#CC2CC2)(C(F)(F)F)O1", "note": "[efavirenz]", "values": [{"measurement": "concentration above which toxic to the HeLa cells", "value": "higher than 25 μM"}]}]}
